Measurements taken from ChEMBL document CHEMBL1765070, “Structure-based design of potent and selective 3-phosphoinositide-dependent kinase-1 (PDK1) inhibitors” (J Med Chem, 2011).

What was measured:
[1] = target: T1, 3-phosphoinositide-dependent protein kinase 1 (Homo sapiens, UniProt O15530); test: Inhibition of PDK1
T1 sequence (O15530 whole entry): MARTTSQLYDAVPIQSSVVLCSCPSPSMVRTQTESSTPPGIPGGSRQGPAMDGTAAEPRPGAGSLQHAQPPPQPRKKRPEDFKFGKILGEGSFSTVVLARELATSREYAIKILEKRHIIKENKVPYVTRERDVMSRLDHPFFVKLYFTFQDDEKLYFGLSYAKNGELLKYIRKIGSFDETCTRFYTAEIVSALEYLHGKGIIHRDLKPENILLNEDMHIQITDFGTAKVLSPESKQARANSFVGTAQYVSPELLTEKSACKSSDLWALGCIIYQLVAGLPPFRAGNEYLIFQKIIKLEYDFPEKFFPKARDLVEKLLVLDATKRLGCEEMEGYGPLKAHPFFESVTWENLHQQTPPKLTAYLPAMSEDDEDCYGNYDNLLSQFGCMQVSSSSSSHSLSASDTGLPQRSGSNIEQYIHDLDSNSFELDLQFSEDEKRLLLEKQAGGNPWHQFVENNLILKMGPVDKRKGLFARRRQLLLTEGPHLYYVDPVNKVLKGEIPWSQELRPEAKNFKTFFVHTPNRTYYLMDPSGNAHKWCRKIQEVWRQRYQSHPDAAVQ

TGF-beta receptor type-1 = target: T2, TGF-beta receptor type-1 (Homo sapiens, UniProt P36897); test: Inhibition of ALK5; settings: read-out: pIC50 (converted)
T2 sequence (P36897 whole entry): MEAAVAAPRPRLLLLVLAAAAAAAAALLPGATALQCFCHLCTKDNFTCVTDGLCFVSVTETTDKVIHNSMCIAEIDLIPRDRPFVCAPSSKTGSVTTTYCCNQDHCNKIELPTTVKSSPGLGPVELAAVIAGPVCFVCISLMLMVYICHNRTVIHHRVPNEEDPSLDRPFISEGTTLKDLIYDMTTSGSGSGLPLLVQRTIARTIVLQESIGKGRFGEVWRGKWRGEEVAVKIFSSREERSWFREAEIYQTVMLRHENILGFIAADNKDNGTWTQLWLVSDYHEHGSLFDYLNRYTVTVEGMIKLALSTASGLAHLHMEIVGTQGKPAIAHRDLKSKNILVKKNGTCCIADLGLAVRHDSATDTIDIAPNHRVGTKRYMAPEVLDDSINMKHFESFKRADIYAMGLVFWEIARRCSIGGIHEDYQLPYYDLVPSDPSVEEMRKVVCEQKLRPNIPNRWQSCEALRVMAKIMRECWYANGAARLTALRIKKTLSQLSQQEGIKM

Aurora kinase B = Aurora kinase B (Homo sapiens, UniProt Q96GD4); test: Inhibition of aurora B
Sequence of Aurora kinase B (Q96GD4 whole entry): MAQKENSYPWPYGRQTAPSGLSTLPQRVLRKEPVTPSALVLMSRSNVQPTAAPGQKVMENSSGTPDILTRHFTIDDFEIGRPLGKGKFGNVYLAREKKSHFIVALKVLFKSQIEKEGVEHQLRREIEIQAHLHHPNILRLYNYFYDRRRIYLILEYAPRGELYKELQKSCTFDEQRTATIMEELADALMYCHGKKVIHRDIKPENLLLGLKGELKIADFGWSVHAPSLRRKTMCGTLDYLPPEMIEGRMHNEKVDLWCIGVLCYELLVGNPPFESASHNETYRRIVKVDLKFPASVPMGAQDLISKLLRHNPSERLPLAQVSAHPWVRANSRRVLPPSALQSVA

[2] = target: Rho-associated protein kinase 1 (Homo sapiens, UniProt Q13464); test: Inhibition of ROCK1
Sequence of Rho-associated protein kinase 1 (Q13464 whole entry): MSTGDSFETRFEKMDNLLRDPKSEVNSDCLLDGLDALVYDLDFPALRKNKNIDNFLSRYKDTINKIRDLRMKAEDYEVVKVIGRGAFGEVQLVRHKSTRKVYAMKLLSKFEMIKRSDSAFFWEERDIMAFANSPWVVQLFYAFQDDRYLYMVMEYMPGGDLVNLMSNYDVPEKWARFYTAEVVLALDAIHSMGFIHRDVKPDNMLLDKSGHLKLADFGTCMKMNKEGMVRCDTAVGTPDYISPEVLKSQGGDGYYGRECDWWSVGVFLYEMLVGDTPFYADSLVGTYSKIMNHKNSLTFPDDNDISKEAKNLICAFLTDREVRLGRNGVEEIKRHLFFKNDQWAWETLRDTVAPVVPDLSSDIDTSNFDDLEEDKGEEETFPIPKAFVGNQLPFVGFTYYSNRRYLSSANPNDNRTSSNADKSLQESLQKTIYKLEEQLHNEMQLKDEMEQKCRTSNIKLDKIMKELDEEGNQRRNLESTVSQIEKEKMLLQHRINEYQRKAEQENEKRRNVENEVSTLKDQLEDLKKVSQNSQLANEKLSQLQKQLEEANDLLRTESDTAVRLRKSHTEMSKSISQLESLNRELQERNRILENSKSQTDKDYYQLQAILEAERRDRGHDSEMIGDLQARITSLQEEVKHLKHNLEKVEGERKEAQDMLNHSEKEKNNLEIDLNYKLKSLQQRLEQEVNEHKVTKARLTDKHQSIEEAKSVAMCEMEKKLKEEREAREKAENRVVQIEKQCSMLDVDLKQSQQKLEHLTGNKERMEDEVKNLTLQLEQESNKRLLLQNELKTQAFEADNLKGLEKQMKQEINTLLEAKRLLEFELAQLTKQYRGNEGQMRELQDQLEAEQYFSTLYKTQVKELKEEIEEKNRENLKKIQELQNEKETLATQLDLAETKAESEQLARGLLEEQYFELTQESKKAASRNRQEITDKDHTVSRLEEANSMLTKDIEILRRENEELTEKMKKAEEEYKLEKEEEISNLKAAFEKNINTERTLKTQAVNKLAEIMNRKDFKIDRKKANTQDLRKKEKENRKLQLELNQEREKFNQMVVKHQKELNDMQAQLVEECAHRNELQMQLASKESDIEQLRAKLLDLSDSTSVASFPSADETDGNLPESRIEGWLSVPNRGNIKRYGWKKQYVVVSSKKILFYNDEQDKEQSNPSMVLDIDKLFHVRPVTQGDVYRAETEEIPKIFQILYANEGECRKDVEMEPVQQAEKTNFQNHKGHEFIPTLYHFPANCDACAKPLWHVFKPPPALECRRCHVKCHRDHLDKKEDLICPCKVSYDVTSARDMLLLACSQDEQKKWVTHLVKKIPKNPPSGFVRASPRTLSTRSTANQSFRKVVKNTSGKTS

Aurora kinase A = target: T3, Aurora kinase A (Homo sapiens, UniProt O14965); test: Inhibition of aurora A
T3 sequence (O14965 whole entry): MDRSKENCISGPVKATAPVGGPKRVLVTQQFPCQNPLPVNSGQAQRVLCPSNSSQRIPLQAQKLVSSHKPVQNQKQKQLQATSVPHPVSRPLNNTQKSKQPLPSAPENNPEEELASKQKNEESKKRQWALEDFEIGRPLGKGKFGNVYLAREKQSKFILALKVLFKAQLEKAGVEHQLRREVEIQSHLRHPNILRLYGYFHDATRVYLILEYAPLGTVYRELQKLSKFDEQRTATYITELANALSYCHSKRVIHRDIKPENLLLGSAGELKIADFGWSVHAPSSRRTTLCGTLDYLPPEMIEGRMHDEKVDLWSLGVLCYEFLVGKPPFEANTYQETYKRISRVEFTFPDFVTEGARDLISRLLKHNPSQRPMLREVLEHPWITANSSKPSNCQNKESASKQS

[3] = target: T1, 3-phosphoinositide-dependent protein kinase 1; test: Inhibition of PDK1-mediated AKT phosphorylation at Thr308 residue in human PC3 cells by ELISA; assay type: cell-based, PC-3
[4] = target: T1, 3-phosphoinositide-dependent protein kinase 1; test: Inhibition of PDK1-mediated RSK phosphorylation at Ser221 residue in human PC3 cells by ELISA; assay type: cell-based, PC-3

Structure (SMILES) | IC50 [1] | IC50 (TGF-beta receptor type-1) | IC50 (Aurora kinase B) | IC50 [2] | IC50 (Aurora kinase A) | IC50 [3] | IC50 [4]
C[C@@H]1CCCCN1c1cc(-c2ccc3c(N)n[nH]c3c2)nc(N)n1 | 0.126 µM | 7.94 µM | 25.1 µM | > 10 µM | > 10 µM | – | –
CCNc1cc(-c2ccc3c(N)[nH]nc3c2)nc(N)n1 | – | 0.501 µM | 10 µM | > 10 µM | 2.51 µM | – | –
Nc1nc(-c2ccc3c(N)n[nH]c3c2)cc(N2CCC[C@H](C(=O)NC3CCCC3)C2)n1 | 0.126 µM | > 10 µM | > 10 µM | > 10 µM | > 10 µM | – | –
C[C@@H]1CO[C@H](C(=O)Nc2ccccc2)CN1c1cc(-c2ccc3c(N)n[nH]c3c2)nc(N)n1 | – | > 10 µM | 0.316 µM | 0.158 µM | 0.2 µM | – | –
C[C@H]1CC[C@@H](NC(=O)OC(C)(C)C)CN1c1cc(-c2ccc3c(N)[nH]nc3c2)nc(N)n1 (racemic) | – | > 10 µM | 0.158 µM | > 10 µM | 0.794 µM | – | –
COc1nccc(-c2ccc3c(N)n[nH]c3c2)n1 | 12.6 µM | – | – | – | – | – | –
Nc1nc(NC2CCCC2)cc(-c2ccc3c(N)n[nH]c3c2)n1 | – | 0.398 µM | 7.94 µM | 6.31 µM | 2.51 µM | – | –
Nc1nc(-c2ccc3c(N)n[nH]c3c2)cc(N2CCCCC2)n1 | 0.251 µM | > 10 µM | > 10 µM | > 10 µM | > 10 µM | – | –
CNc1cc(-c2ccc3c(N)n[nH]c3c2)nc(N)n1 | 0.0794 µM | 0.398 µM | 12.6 µM | 7.94 µM | 3.16 µM | – | –
C[C@H]1CC[C@@H](NC(=O)OC(C)(C)C)CN1c1cc(-c2ccc3c(N)[nH]nc3c2)nc(N)n1 | – | – | 1 µM | – | 0.501 µM | – | –
Nc1nc(-c2ccc3c(N)n[nH]c3c2)cc(N2CCCC2)n1 | 0.251 µM | > 10 µM | > 10 µM | > 10 µM | > 10 µM | – | –
Cc1cc(-c2ccc3c(N)n[nH]c3c2)nc(N)n1 | – | 7.94 µM | 12.6 µM | 3.98 µM | 3.98 µM | – | –
C[C@@H]1CC[C@H](NC(=O)OC(C)(C)C)CN1c1cc(-c2ccc3c(N)n[nH]c3c2)nc(N)n1 | – | > 10 µM | 0.0501 µM | > 10 µM | 2 µM | – | –
CC(C)(C)OC(=O)N[C@H]1CCCN(c2cc(-c3ccc4c(N)n[nH]c4c3)nc(N)n2)C1 | 1 µM | > 10 µM | 0.316 µM | > 10 µM | 6.31 µM | – | –
CCNc1nccc(-c2ccc3c(N)n[nH]c3c2)n1 | 7.94 µM | – | – | – | – | – | –
Nc1nc(-c2ccc3c(N)[nH]nc3c2)cc(N2CCOCC2)n1 | – | > 10 µM | > 10 µM | > 10 µM | > 10 µM | – | –
COc1cc(-c2ccc3c(N)n[nH]c3c2)nc(N)n1 | 0.251 µM | 3.16 µM | 7.94 µM | 5.01 µM | 6.31 µM | – | –
CC(C)[C@@H]1COCCN1c1cc(-c2ccc3c(N)n[nH]c3c2)nc(N)n1 | 0.2 µM | > 10 µM | 7.94 µM | 15.8 µM | 12.6 µM | – | –
Nc1nc(-c2ccc3c(N)[nH]nc3c2)cc(N2CCO[C@H](C(=O)Nc3ccccc3)C2)n1 | – | > 10 µM | 3.16 µM | 0.794 µM | 1.26 µM | – | –
CN(C)c1cc(-c2ccc3c(N)n[nH]c3c2)nc(N)n1 | 0.501 µM | 5.01 µM | > 10 µM | > 10 µM | > 10 µM | – | –
C[C@@H]1CC[C@H](C(=O)Nc2ccccc2)CN1c1cc(-c2ccc3c(N)[nH]nc3c2)nc(N)n1 | – | 6.31 µM | 1 µM | 0.2 µM | – | – | –
Nc1nc(-c2ccc3c(N)n[nH]c3c2)cc(N2CCCC(NC(=O)c3ccccc3)C2)n1 (racemic) | 0.0631 µM | > 10 µM | 0.0251 µM | > 10 µM | 1.26 µM | – | –
C[C@H]1CC[C@@H](C(=O)Nc2ccccc2)CN1c1cc(-c2ccc3c(N)n[nH]c3c2)nc(N)n1 | – | > 10 µM | 5.01 µM | – | – | – | –
C[C@@H]1COCCN1c1cc(-c2ccc3c(N)[nH]nc3c2)nc(N)n1 | – | > 10 µM | 25.1 µM | 15.8 µM | 12.6 µM | – | –
Nc1nc(-c2ccc3c(N)n[nH]c3c2)cc(N2CCC[C@H](C(=O)Nc3ccccc3)C2)n1 | 0.0316 µM | > 10 µM | 1.26 µM | 2 µM | 7.94 µM | – | –
CC(C)c1cc(-c2ccc3c(N)n[nH]c3c2)nc(N)n1 | 0.251 µM | 2 µM | 7.94 µM | > 10 µM | 3.16 µM | – | –
Nc1nc(-c2ccc3c(N)n[nH]c3c2)cc(N2CCO[C@@H](C(=O)Nc3ccccc3)C2)n1 | 1 µM | > 10 µM | > 10 µM | > 10 µM | > 10 µM | – | –
CC(C)Nc1cc(-c2ccc3c(N)n[nH]c3c2)nc(N)n1 | 0.126 µM | 0.501 µM | 15.8 µM | > 10 µM | 2 µM | – | –
Nc1nc(-c2ccc3c(N)n[nH]c3c2)cc(N2CCC[C@@H](C(=O)Nc3ccccc3)C2)n1 | 0.126 µM | > 10 µM | 1.58 µM | 3.16 µM | 7.94 µM | – | –

The next lines start with the values.

IC50 [1] | IC50 (TGF-beta receptor type-1) | IC50 (Aurora kinase B) | IC50 [2] | IC50 (Aurora kinase A) | IC50 [3] | IC50 [4] | Structure (SMILES)
0.0251 µM | > 10 µM | 5.01 µM | > 10 µM | 1.58 µM | – | – | CC(C)(C)OC(=O)N[C@@H]1CCCN(c2cc(-c3ccc4c(N)n[nH]c4c3)nc(N)n2)C1
0.0631 µM | > 10 µM | 3.98 µM | 5.01 µM | > 10 µM | – | – | Nc1nc(-c2ccc3c(N)n[nH]c3c2)cc(N2CCC[C@H](C(=O)NC3CCCCC3)C2)n1
0.0501 µM | > 10 µM | 0.398 µM | > 10 µM | 1.26 µM | – | – | CC(C)(C)OC(=O)NC1CCCN(c2cc(-c3ccc4c(N)n[nH]c4c3)nc(N)n2)C1 (racemic)
– | > 10 µM | > 10 µM | > 10 µM | 5.01 µM | – | – | CC[C@@H]1COCCN1c1cc(-c2ccc3c(N)n[nH]c3c2)nc(N)n1
0.000631 µM | > 10 µM | 0.2 µM | > 10 µM | 0.0631 µM | 0.022 µM | 0.116 µM | C[C@@H]1C[C@@H](N(C)C(=O)CC(C)(C)C)CN(c2cc(-c3ccc4c(N)n[nH]c4c3)nc(N)n2)C1
– | > 10 µM | 25.1 µM | 15.8 µM | > 10 µM | – | – | C[C@H]1COCCN1c1cc(-c2ccc3c(N)n[nH]c3c2)nc(N)n1
0.2 µM | 3.16 µM | 2 µM | > 10 µM | 1.58 µM | – | – | Nc1nc(-c2ccccc2)cc(-c2ccc3c(N)n[nH]c3c2)n1
0.00316 µM | > 10 µM | 1.58 µM | 3.16 µM | 7.94 µM | 0.057 µM | 0.088 µM | CC[C@@H]1CO[C@H](C(=O)Nc2ccccc2)CN1c1cc(-c2ccc3c(N)n[nH]c3c2)nc(NC)n1
1 µM | – | – | – | – | – | – | CNc1nccc(-c2ccc3c(N)n[nH]c3c2)n1
0.02 µM | 0.0251 µM | 3.16 µM | 2.51 µM | 0.2 µM | – | – | Nc1nc(Nc2ccccc2)cc(-c2ccc3c(N)n[nH]c3c2)n1
– | > 10 µM | 2 µM | > 10 µM | – | – | – | C[C@@H]1CC[C@@H](C(=O)Nc2ccccc2)CN1c1cc(-c2ccc3c(N)n[nH]c3c2)nc(N)n1 (racemic)
0.398 µM | 1.58 µM | – | 1.58 µM | 0.398 µM | – | – | Nc1nccc(-c2ccc3c(N)n[nH]c3c2)n1
20 µM | – | – | – | – | – | – | CN(C)c1nccc(-c2ccc3c(N)n[nH]c3c2)n1
